Results from patent US8993554B2, “Tetrahydroquinoline derivatives useful as bromodomain inhibitors” (GlaxoSmithKline LLC, priority 2011, dated 2015).
Where a name gives a salt, the structure may show the parent alone.

Tested on: LPS induced IL-6 secretion from whole blood
Experiment: Measurement of LPS Induced IL-6 Secretion from Whole Blood
Assay type: cell-based
Conditions: IL-6 by immunoassay, LPS 200 ng/ml, 24 hours
Procedure: Activation of monocytic cells by agonists of toll-like receptors such as bacterial lipopolysaccharide (LPS) results in production of key inflammatory mediators including IL-6. Such pathways are widely considered to be central to the pathophysiology of a range of auto-immune and inflammatory disorders.
Compounds to be tested are diluted to give a range of appropriate concentrations of which 1 μl of the diluted stocks is added to a 96 well plate. Following addition of whole blood (130 μl) the plates are incubated at 37 degrees (5% CO2) for 30 min before the addition of 10 μl of 2.8 ug/ml LPS, diluted in complete RPMI 1640 (final concentration=200 ng/ml), to give a total volume of 140 μl per well. After further incubation for 24 hours at 37 degrees, 140 μl of PBS are added to each well. The plates are sealed, shaken for 10 minutes and then centrifuged (2500 rpm×10 min). 100 μl of the supernatant are removed and IL-6 levels assayed by immunoassay (typically by MesoScale Discovery technology) either immediately or following storage at −20 degrees. Concentration response curves for each compound was generated from the data and an IC50 value was calculated.

Row | Compound | IC50 [nM]
1 | CC(=O)N1c2ccc(-c3ccc(C(=O)N4CCOCC4)nc3)cc2[C@H](Nc2cnc(C)cn2)C[C@@H]1C [Example 54, 1-((2S,4R)-2-methyl-4-((5-methylpyrazin-2-yl)amino)-6-(6-(morpholine-4-carbonyl)pyridin-3-yl)-3,4-dihydroquinolin-1(2H)-yl)ethanone] | 50.1 to 3160
2 | CC(=O)N1c2ccc(-c3ccc(C(=O)NCCN(C)C)cn3)cc2[C@H](Nc2ccccn2)C[C@@H]1C [Example 23, 6-((2S,4R)-1-acetyl-2-methyl-4-(pyridin-2-ylamino)-1,2,3,4-tetrahydroquinolin-6-yl)-N-(2-(dimethylamino)ethyl)nicotinamide] | 50.1 to 3160
3 | CC(=O)N1c2ccc(-c3ccc(C(=O)N4CCCC4)cc3)cc2[C@H](Nc2ccc(C)cn2)C[C@@H]1C [Example 68, 1-((2S,4R)-2-methyl-4-((5-methylpyridin-2-yl)amino)-6-(4-(pyrrolidine-1-carbonyl)phenyl)-3,4-dihydroquinolin-1(2H)-yl)ethanone formate] | 50.1 to 3160
4 | CC(=O)N1c2ccc(-c3ccc(C(=O)NC(CO)CO)cc3)cc2[C@H](Nc2ccccn2)C[C@@H]1C [Example 21, 4-((2S,4R)-1-acetyl-2-methyl-4-(pyridin-2-ylamino)-1,2,3,4-tetrahydroquinolin-6-yl)-N-(1,3-dihydroxypropan-2-yl)benzamide] | 50.1 to 3160
5 | CC(=O)N1c2ccc(-c3ccc(C(=O)NCCO)nc3)cc2[C@H](Nc2cnc(C#N)cn2)C[C@@H]1C [Example 49, 5-((2S,4R)-1-acetyl-4-((5-cyanopyrazin-2-yl)amino)-2-methyl-1,2,3,4-tetrahydroquinolin-6-yl)-N-(2-hydroxyethyl)picolinamide] | 50.1 to 3160
6 | CC(=O)N1c2ccc(-c3ccc(C(=O)N4CCOCC4)cn3)cc2[C@H](Nc2cnc(C)cn2)C[C@@H]1C [Example 60, 1-((2S,4R)-2-methyl-4-((5-methylpyrazin-2-yl)amino)-6-(5-(morpholine-4-carbonyl)pyridin-2-yl)-3,4-dihydroquinolin-1(2H)-yl)ethanone] | 50.1 to 3160
7 | CC(=O)N1c2ccc(-c3ccc(CC(=O)NCCO)cc3)cc2[C@H](Nc2ccc(C#N)cn2)C[C@@H]1C [Example 3, 2-(4-((2S,4R)-1-Acetyl-4-((5-cyanopyridin-2-yl)amino)-2-methyl-1,2,3,4-tetrahydroquinolin-6-yl)phenyl)-N-(2-hydroxyethyl)acetamide] | 50.1 to 3160
8 | CC(=O)N1c2ccc(-c3ccc(C(=O)NCCO)cc3)cc2[C@H](Nc2ccccn2)C[C@@H]1C [Example 19, 4-((2S,4R)-1-acetyl-2-methyl-4-(pyridin-2-ylamino)-1,2,3,4-tetrahydroquinolin-6-yl)-N-(2-hydroxyethyl)benzamide] | 50.1 to 3160
9 | CC(=O)N1c2ccc(-c3ccc(C(=O)N4CCOCC4)nc3)cc2[C@H](Nc2cccc(Cl)c2)C[C@@H]1C [Example 62] | 50.1 to 3160
10 | CC(=O)N1c2ccc(-c3ccc(C(=O)NCCN(C)C)cc3)cc2[C@H](Nc2ccc(Cl)cc2)C[C@@H]1C [Example 38, 4-((2S,4R)-1-acetyl-4-((4-chlorophenyl)amino)-2-methyl-1,2,3,4-tetrahydroquinolin-6-yl)-N-(2-(dimethylamino)ethyl)benzamide] | 50.1 to 3160
11 | CC(=O)N1c2ccc(-c3ccc(C(=O)N4CCOCC4)cc3)cc2[C@H](Nc2ccc(C#N)cn2)C[C@@H]1C [Example 65, 6-(((2S,4R)-1-acetyl-2-methyl-6-(4-(morpholine-4-carbonyl)phenyl)-1,2,3,4-tetrahydroquinolin-4-yl)amino)nicotinonitrile] | 50.1 to 3160
12 | CC(=O)N1c2ccc(-c3ccc(C(=O)N4CCNCC4)nc3)cc2[C@H](Nc2ccc(C#N)cn2)C[C@@H]1C [Example 48, 6-(((2S,4R)-1-acetyl-2-methyl-6-(6-(piperazine-1-carbonyl)pyridin-3-yl)-1,2,3,4-tetrahydroquinolin-4-yl)amino)nicotinonitrile] | 50.1 to 3160
13 | CC(=O)N1c2ccc(-c3ccc(C(=O)NCCN(C)C)cc3)cc2[C@H](Nc2ccccc2)C[C@@H]1C [Example 45, 4-((2S,4R)-1-acetyl-2-methyl-4-(phenylamino)-1,2,3,4-tetrahydroquinolin-6-yl)-N-(2-(dimethylamino)ethyl)benzamide] | 50.1 to 3160
14 | CC(=O)N1c2ccc(-c3ccc(C(=O)NCCO)cn3)cc2[C@H](Nc2ccc(C#N)cn2)C[C@@H]1C [Example 12, 6-((2S,4R)-1-acetyl-4-((5-cyanopyridin-2-yl)amino)-2-methyl-1,2,3,4-tetrahydroquinolin-6-yl)-N-(2-hydroxyethyl)nicotinamide] | 50.1 to 3160
15 | CC(=O)N1c2ccc(-c3ccc(C(=O)NC(CO)CO)cc3)cc2[C@H](Nc2ccc(C#N)cn2)C[C@@H]1C [Example 15, 4-((2S,4R)-1-acetyl-4-((5-cyanopyridin-2-yl)amino)-2-methyl-1,2,3,4-tetrahydroquinolin-6-yl)-N-(1,3-dihydroxypropan-2-yl)benzamide] | 50.1 to 3160

The next lines start with the values.

Row | IC50 [nM] | Compound
16 | 50.1 to 3160 | CC(=O)N1c2ccc(-c3ccc(C(=O)N4CC(N)C4)nc3)cc2[C@H](Nc2ccc(C#N)cn2)C[C@@H]1C [Example 37, 6-(((2S,4R)-1-acetyl-6-(6-(3-aminoazetidine-1-carbonyl)pyridin-3-yl)-2-methyl-1,2,3,4-tetrahydroquinolin-4-yl)amino)nicotinonitrile]
17 | 50.1 to 3160 | CC(=O)N1c2ccc(-c3ccc(C(=O)NCCN)cc3)cc2[C@H](Nc2ccc(Cl)cc2)C[C@@H]1C [Example 44, 4-((2S,4R)-1-acetyl-4-((4-chlorophenyl)amino)-2-methyl-1,2,3,4-tetrahydroquinolin-6-yl)-N-(2-aminoethyl)benzamide]
18 | 50.1 to 3160 | CC(=O)N1c2ccc(-c3ccc(C(=O)NCCN(C)C)cc3)cc2[C@H](Nc2ccccn2)C[C@@H]1C [Example 20, 4-((2S,4R)-1-acetyl-2-methyl-4-(pyridin-2-ylamino)-1,2,3,4-tetrahydroquinolin-6-yl)-N-(2-(dimethylamino)ethyl)benzamide]
19 | 50.1 to 3160 | CC(=O)N1c2ccc(-c3ccc(C(=O)N4CCOCC4)cn3)cc2[C@H](Nc2cnccn2)C[C@@H]1C [Example 58, 1-((2S,4R)-2-methyl-6-(5-(morpholine-4-carbonyl)pyridin-2-yl)-4-(pyrazin-2-ylamino)-3,4-dihydroquinolin-1(2H)-yl)ethanone]
20 | 50.1 to 3160 | CC(=O)N1c2ccc(-c3ccc(C(=O)NCCO)cc3)cc2[C@H](Nc2ccccc2)C[C@@H]1C [Example 46, 4-((2S,4R)-1-acetyl-2-methyl-4-(phenylamino)-1,2,3,4-tetrahydroquinolin-6-yl)-N-(2-hydroxyethyl)benzamide]
21 | 50.1 to 3160 | CC(=O)N1c2ccc(-c3ccc(C(=O)N4CCOCC4)cn3)cc2[C@H](Nc2ccc(Cl)cc2)C[C@@H]1C [Example 64, 1-((2S,4R)-4-((4-chlorophenyl)amino)-2-methyl-6-(5-(morpholine-4-carbonyl)pyridin-2-yl)-3,4-dihydroquinolin-1(2H)-yl)ethanone]
22 | 50.1 to 3160 | CC(=O)N1c2ccc(-c3ccc(C(=O)N4CCOCC4)cn3)cc2[C@H](Nc2ccc(Cl)cn2)C[C@@H]1C [Example 57, 1-((2S,4R)-4-((5-chloropyridin-2-yl)amino)-2-methyl-6-(5-(morpholine-4-carbonyl)pyridin-2-yl)-3,4-dihydroquinolin-1(2H)-yl)ethanone]
23 | 50.1 to 3160 | CC(=O)N1c2ccc(-c3ccc(C(=O)NC(CO)CO)nc3)cc2[C@H](Nc2ccc(C#N)cn2)C[C@@H]1C [Example 30, 5-((2S,4R)-1-acetyl-4-((5-cyanopyridin-2-yl)amino)-2-methyl-1,2,3,4tetrahydroquinolin-6-yl)-N-(1,3-dihydroxypropan-2-yl)picolinamide]
24 | 50.1 to 3160 | CC(=O)N1c2ccc(-c3ccc(C(=O)N4CCN(C)CC4)nc3)cc2[C@H](Nc2ccc(C#N)cn2)C[C@@H]1C [Example 34, 6-(((2S,4R)-1-acetyl-2-methyl-6-(6-(4-methylpiperazine-1-carbonyl)pyridin-3-yl)-1,2,3,4-tetrahydroquinolin-4-yl)amino)nicotinonitrile]
25 | 50.1 to 3160 | CC(=O)N1c2ccc(-c3ccc(C(=O)NCCN)cc3)cc2[C@H](Nc2ccccn2)C[C@@H]1C [Example 22, 4-((2S,4R)-1-acetyl-2-methyl-4-(pyridin-2-ylamino)-1,2,3,4-tetrahydroquinolin-6-yl)-N-(2-aminoethyl)benzamide]
26 | 50.1 to 3160 | CC(=O)N1c2ccc(-c3ccc(C(=O)NCCCO)nc3)cc2[C@H](Nc2ccc(C#N)cn2)C[C@@H]1C [Example 31, 5-((2S,4R)-1-acetyl-4-((5-cyanopyridin-2-yl)amino)-2-methyl-1,2,3,4-tetrahydroquinolin-6-yl)-N-(3-hydroxypropyl)picolinamide]
27 | 50.1 to 3160 | CC(=O)N1c2ccc(-c3ccc(C(=O)N4CCOCC4)nc3)cc2[C@H](Nc2ccc(Cl)cn2)C[C@@H]1C [Example 52, 1-((2S,4R)-4-((5-chloropyridin-2-yl)amino)-2-methyl-6-(6-(morpholine-4-carbonyl)pyridin-3-yl)-3,4-dihydroquinolin-1(2H)-yl)ethanone]
28 | 50.1 to 3160 | CC(=O)N1c2ccc(-c3ccc(C(=O)NC(CO)CO)cn3)cc2[C@H](Nc2ccc(C#N)cn2)C[C@@H]1C [Example 11, 6-((2S,4R)-1-acetyl-4-((5-cyanopyridin-2-yl)amino)-2-methyl-1,2,3,4-tetrahydroquinolin-6-yl)-N-(1,3-dihydroxypropan-2-yl)nicotinamide]
